Measured values: ChEMBL document CHEMBL4507281, “Data for DCP probe BI-4394” (2021)

How the values were obtained:
Settings in all cases: Compound concentration 100.0 nM
[1] = biological target: Casein kinase I isoform gamma-3 (Homo sapiens) (UniProt Q9Y6M4)
[2] = biological target: Serine/threonine-protein kinase Nek3 (Homo sapiens) (UniProt P51956)
[3] = tested on: Phosphatidylinositol 4,5-bisphosphate 3-kinase catalytic subunit alpha isoform (Homo sapiens), P42336 [E545K]
[4] = biological target: Cyclin-dependent kinase 11B (Homo sapiens) (UniProt P21127)
[5] = biological target: T1, Phosphorylase b kinase regulatory subunit alpha, liver isoform (Homo sapiens) (UniProt P46019)
T1 sequence (whole entry): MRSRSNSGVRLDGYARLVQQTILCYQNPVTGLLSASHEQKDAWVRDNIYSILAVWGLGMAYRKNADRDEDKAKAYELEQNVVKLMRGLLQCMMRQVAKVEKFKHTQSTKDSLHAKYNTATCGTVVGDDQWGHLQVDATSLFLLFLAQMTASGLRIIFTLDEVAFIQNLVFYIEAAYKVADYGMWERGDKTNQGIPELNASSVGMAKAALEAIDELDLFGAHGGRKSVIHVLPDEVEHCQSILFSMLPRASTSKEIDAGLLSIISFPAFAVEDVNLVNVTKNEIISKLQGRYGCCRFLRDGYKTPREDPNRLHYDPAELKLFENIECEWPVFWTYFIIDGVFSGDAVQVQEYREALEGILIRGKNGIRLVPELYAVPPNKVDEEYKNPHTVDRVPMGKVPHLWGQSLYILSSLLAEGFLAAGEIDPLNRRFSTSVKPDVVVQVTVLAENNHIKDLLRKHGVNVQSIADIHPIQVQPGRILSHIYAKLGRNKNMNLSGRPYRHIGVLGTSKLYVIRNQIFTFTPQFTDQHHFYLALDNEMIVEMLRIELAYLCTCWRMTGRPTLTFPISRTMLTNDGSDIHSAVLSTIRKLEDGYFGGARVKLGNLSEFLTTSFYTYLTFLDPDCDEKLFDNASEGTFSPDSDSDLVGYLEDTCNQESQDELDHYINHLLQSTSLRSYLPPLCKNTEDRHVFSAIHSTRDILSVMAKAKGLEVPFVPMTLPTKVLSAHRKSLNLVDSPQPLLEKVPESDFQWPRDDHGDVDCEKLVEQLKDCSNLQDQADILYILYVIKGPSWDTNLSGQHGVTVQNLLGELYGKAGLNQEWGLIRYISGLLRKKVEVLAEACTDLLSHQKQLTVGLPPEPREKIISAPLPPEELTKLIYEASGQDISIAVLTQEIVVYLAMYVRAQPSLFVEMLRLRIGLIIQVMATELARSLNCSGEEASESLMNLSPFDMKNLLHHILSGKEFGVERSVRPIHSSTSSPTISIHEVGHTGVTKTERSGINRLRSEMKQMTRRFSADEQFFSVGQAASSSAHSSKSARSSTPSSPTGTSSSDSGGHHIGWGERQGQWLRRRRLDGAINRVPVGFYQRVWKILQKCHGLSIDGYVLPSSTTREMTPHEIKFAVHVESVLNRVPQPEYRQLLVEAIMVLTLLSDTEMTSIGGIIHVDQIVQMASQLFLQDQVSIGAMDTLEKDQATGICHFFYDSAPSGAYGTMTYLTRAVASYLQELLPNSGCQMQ

[6] = biological target: Hepatocyte growth factor receptor (Homo sapiens) (UniProt P08581)
[7] = biological target: Ephrin type-B receptor 1 (Homo sapiens) (UniProt P54762)
[8] = biological target: Mitogen-activated protein kinase kinase kinase 13 (Homo sapiens) (UniProt O43283)
[9] = biological target: Tyrosine-protein kinase JAK1 (Homo sapiens) (UniProt P23458)
[10] = biological target: MAP kinase-interacting serine/threonine-protein kinase 1 (Homo sapiens) (UniProt Q9BUB5)
[11] = biological target: 5'-AMP-activated protein kinase catalytic subunit alpha-1 (Homo sapiens) (UniProt Q13131)
[12] = biological target: Serine/threonine-protein kinase MARK2 (Homo sapiens) (UniProt Q7KZI7)
[13] = tested on: Mast/stem cell growth factor receptor Kit (Homo sapiens), P10721 [D816V]
[14] = biological target: Calcium/calmodulin-dependent protein kinase type 1 (Homo sapiens) (UniProt Q14012)
[15] = biological target: Mitogen-activated protein kinase 6 (Homo sapiens) (UniProt Q16659)
[16] = biological target: Proto-oncogene tyrosine-protein kinase ROS (Homo sapiens) (UniProt P08922)
[17] = biological target: Serine/threonine-protein kinase 32B (Homo sapiens) (UniProt Q9NY57)
[18] = biological target: Tyrosine-protein kinase ITK/TSK (Homo sapiens) (UniProt Q08881)
[19] = biological target: Serine/threonine-protein kinase Sgk2 (Homo sapiens) (UniProt Q9HBY8)
[20] = tested on: Tyrosine-protein kinase ABL1 (Homo sapiens), P00519 [Q252H]
[21] = biological target: Serine/threonine-protein kinase BRSK2 (Homo sapiens) (UniProt Q8IWQ3)
[22] = biological target: Phosphatidylinositol 4-kinase beta (Homo sapiens) (UniProt Q9UBF8)
[23] = biological target: Serine/threonine-protein kinase 24 (Homo sapiens) (UniProt Q9Y6E0)
[24] = biological target: BDNF/NT-3 growth factors receptor (Homo sapiens) (UniProt Q16620)
[25] = biological target: Aurora kinase B (Homo sapiens) (UniProt Q96GD4)
[26] = biological target: Serine/threonine-protein kinase PAK 1 (Homo sapiens) (UniProt Q13153)
[27] = biological target: Serine/threonine-protein kinase RIO2 (Homo sapiens) (UniProt Q9BVS4)
[28] = biological target: Phosphatidylinositol 4,5-bisphosphate 3-kinase catalytic subunit gamma isoform (Homo sapiens) (UniProt P48736)

Measured: residual activity

Chain of Ephrin type-B receptor 1 (Homo sapiens) (P54762 whole entry): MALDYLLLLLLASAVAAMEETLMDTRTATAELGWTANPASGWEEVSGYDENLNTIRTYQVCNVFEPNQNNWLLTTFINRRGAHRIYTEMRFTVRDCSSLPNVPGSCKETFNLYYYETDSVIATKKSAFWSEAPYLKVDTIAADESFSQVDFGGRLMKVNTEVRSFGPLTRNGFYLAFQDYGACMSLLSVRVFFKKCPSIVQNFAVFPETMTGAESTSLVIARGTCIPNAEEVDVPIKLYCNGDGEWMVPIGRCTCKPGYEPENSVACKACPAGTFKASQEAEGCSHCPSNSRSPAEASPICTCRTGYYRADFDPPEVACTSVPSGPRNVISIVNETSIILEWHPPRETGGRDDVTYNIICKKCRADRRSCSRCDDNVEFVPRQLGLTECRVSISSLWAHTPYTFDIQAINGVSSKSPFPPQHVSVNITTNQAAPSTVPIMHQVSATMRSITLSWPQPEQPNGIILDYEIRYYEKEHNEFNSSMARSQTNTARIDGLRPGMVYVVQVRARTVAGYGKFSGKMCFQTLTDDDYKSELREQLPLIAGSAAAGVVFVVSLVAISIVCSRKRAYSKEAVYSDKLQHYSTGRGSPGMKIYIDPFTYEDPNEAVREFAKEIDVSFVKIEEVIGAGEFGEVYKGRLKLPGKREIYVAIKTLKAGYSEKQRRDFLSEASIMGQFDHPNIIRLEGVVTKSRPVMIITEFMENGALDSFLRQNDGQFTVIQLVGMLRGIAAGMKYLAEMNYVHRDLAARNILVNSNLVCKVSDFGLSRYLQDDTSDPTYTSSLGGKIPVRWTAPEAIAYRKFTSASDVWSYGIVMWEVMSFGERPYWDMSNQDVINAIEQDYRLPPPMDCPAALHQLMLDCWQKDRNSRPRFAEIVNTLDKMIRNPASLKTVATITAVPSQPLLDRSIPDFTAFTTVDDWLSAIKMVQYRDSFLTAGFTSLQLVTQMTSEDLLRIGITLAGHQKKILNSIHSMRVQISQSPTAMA
Chain of Serine/threonine-protein kinase 24 (Homo sapiens) (Q9Y6E0 whole entry, looked up): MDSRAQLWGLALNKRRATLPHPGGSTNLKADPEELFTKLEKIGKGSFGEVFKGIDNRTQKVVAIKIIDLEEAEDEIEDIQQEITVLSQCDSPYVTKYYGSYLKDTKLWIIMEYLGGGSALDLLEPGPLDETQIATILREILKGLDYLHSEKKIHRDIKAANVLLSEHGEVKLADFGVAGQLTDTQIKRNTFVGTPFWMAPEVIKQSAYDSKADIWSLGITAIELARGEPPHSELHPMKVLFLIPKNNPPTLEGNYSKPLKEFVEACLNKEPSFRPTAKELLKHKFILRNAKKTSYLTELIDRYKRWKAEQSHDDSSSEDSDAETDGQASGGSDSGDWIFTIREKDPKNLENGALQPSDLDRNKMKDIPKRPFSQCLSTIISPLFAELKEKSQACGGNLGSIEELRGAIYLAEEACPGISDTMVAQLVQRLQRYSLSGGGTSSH
Chain of Mast/stem cell growth factor receptor Kit (Homo sapiens), P10721 [D816V] (P10721 whole entry D816V): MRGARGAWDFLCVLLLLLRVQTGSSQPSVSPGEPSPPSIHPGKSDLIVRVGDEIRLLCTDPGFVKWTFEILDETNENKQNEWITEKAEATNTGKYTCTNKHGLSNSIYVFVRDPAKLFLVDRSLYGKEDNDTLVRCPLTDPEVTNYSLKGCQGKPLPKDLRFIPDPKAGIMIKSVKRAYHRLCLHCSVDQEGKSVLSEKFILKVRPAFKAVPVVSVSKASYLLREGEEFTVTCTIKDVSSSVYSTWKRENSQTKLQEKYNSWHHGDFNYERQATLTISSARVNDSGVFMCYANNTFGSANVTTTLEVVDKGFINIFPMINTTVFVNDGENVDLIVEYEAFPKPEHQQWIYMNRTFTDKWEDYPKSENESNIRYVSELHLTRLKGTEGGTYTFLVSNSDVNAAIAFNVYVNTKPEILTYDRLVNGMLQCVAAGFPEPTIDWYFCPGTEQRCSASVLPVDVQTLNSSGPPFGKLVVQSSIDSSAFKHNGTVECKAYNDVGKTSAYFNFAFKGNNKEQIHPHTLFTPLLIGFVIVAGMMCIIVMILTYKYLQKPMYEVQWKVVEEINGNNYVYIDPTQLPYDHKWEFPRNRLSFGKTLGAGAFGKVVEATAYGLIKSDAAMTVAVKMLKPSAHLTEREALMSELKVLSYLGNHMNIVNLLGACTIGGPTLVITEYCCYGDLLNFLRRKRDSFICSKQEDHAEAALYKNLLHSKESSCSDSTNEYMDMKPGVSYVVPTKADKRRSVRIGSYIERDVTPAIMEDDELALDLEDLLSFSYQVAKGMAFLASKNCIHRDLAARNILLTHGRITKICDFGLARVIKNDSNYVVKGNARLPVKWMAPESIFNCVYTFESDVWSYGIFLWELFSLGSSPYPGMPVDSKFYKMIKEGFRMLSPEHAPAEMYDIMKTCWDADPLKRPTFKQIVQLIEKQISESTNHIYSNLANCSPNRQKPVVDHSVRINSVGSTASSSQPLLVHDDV
Chain of Mitogen-activated protein kinase kinase kinase 13 (Homo sapiens) (O43283 whole entry): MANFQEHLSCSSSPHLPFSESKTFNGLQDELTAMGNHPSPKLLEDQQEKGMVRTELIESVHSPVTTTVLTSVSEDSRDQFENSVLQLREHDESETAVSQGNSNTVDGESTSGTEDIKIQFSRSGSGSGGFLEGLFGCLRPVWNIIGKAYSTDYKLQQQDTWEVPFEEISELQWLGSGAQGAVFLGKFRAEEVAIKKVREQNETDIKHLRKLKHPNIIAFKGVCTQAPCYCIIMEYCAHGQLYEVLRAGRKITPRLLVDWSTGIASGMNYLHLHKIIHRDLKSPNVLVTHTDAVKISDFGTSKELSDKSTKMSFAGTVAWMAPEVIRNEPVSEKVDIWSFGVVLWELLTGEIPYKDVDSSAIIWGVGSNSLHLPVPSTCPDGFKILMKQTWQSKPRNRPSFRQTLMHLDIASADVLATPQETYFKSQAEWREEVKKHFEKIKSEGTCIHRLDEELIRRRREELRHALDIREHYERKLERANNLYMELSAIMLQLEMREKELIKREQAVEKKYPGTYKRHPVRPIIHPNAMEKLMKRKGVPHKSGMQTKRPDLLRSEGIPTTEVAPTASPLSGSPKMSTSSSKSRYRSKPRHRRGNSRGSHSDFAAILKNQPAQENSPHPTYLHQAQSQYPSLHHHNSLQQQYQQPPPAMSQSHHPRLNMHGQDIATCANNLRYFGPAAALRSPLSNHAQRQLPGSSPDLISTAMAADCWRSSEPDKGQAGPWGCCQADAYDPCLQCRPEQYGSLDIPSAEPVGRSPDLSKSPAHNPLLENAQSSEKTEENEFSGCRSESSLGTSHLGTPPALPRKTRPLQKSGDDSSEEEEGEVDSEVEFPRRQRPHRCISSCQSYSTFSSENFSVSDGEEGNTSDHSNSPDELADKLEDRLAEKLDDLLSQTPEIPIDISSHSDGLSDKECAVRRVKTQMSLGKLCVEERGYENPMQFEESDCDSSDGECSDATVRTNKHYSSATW
Chain of 5'-AMP-activated protein kinase catalytic subunit alpha-1 (Homo sapiens) (Q13131 whole entry, looked up): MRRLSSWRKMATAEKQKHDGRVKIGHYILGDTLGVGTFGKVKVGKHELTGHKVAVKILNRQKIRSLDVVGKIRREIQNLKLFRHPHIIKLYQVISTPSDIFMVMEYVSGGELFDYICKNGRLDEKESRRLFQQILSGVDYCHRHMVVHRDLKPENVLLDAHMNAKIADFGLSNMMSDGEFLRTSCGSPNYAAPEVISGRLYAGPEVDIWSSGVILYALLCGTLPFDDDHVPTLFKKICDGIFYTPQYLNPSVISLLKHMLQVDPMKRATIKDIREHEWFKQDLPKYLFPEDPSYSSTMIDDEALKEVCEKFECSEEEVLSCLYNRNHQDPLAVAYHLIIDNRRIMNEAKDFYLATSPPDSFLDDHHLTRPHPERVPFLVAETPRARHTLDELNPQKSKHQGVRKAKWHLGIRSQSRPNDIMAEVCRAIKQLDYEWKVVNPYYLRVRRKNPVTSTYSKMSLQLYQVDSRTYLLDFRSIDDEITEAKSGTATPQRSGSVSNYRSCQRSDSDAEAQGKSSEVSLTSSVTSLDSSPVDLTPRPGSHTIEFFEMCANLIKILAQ
Chain of BDNF/NT-3 growth factors receptor (Homo sapiens) (Q16620 32-822 limits assumed): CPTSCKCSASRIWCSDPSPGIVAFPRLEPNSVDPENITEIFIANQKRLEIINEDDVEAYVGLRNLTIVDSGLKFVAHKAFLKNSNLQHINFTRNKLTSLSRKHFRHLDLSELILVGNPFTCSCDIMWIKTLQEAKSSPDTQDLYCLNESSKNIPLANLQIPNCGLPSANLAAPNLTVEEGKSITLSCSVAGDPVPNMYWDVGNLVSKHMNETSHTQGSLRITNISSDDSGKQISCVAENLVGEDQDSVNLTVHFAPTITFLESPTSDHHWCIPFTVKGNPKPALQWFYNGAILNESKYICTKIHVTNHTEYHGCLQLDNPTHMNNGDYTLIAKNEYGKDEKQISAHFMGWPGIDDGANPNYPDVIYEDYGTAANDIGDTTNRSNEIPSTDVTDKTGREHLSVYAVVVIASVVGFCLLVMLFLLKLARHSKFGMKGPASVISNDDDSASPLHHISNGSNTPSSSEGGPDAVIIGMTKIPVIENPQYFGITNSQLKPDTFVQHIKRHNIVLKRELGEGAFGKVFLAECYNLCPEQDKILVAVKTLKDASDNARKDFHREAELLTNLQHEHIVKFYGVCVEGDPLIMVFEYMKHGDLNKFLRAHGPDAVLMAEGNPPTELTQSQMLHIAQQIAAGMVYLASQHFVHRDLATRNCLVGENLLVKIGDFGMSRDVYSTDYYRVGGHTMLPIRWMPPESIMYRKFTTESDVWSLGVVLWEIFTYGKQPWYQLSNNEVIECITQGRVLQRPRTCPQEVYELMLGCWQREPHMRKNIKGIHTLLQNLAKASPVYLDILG
Chain of Aurora kinase B (Homo sapiens) (Q96GD4 whole entry): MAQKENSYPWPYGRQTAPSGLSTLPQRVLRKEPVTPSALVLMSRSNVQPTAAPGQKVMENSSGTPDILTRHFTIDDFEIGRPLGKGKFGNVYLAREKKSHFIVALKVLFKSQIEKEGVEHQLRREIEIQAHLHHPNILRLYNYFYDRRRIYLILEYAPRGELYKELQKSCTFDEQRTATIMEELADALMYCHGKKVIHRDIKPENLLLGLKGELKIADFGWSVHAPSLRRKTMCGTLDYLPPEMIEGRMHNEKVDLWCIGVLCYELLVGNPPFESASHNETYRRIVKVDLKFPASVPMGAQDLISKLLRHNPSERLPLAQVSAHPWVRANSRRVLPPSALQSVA

CCOC(=O)c1cc2cc(-c3cc(C(=O)NCc4ccc(C(=O)O)cc4)nn3C)ccc2[nH]1 [BI 4394]
inactive: [1] 100% | [2] 88% | [3] 100% | [4] 98% | [5] 100% | [6] 96% | [7] 100% | [8] 74% | [9] 100% | [10] 75% | [11] 100% | [12] 100% | [13] 100% | [14] 87% | [15] 97% | [16] 97% | [17] 92% | [18] 100% | [19] 100% | [20] 81% | [21] 67% | [22] 79% | [23] 92% | [24] 91% | [25] 100% | [26] 92% | [27] 100% | [28] 90%

Cn1nc(C(=O)NCc2ccc(C(=O)O)cc2)cc1-c1ccc2[nH]ccc2c1 [BI 4395]
inactive: [1] 94% | [2] 100% | [3] 87% | [4] 93% | [5] 86% | [6] 100% | [7] 87% | [8] 78% | [9] 93% | [10] 100% | [11] 81% | [12] 100% | [13] 91% | [14] 95% | [15] 100% | [16] 74% | [17] 100% | [18] 85% | [19] 54% | [20] 77% | [21] 100% | [22] 70% | [23] 97% | [24] 92% | [25] 92% | [26] 86% | [27] 100% | [28] 64%
